According to doi:10.1101/2024.04.25.591105v1 (biorxiv, 2024):

Molecular target: 14-3-3σΔC / ERα phosphopeptide complex (crystals) (Homo sapiens, UniProt P03372+P31947)
Experiment: X-ray crystallography, soaking
Type: binding
Conditions: ternary complex with Ac-ERα phosphopeptide

Sequence of 14-3-3σΔC / ERα phosphopeptide complex (crystals) (P31947 1-231, stated change not applied, other chains not shown): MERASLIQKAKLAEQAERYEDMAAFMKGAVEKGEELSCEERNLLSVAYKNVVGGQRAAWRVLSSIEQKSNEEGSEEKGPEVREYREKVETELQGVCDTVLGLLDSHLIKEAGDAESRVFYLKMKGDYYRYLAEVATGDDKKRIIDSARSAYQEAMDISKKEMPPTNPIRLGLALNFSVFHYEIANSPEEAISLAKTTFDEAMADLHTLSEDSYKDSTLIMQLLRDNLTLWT

SMILES | X-ray crystallography, soaking
C=CC(C)(C)OC[C@H]1O[C@H](O[C@@H]2C3=C([C@H](C)CNC(C)=O)C[C@H](O)[C@]3(C)/C=C3\[C@@H](COC)CC[C@H]3[C@@H](C)[C@H]2O)[C@H](O)[C@@H](O)[C@@H]1O [FC-NAc] | 8BZH (FC-NAc)
COC[C@H]1CC[C@@H]2/C1=C/[C@]1(C)C(=C([C@H](C)CNC(C)=O)C[C@@H]1O)[C@@H](O)[C@H](O)[C@@H]2C [FC-NAg] | 8BZT (FC-NAg)
